# From patent US20060147511A1, “Liposomal glucocorticoids” (priority 2002, published 2006)
# Experiments:
# [1] = test system: Antigen-induced arthritis; experiment: Antigen-induced arthritis in rats, histological examination of joint inflammation and joint cartilage destruction; format: in vivo; settings: for Degree of cartilage destruction / Degree of joint inflammation: 3.75 mg/kg intravenously 6, 24 and 48 hours after induction, scale 0: no changes, 6: massive changes compared to healthy knee
# Procedure: (§1) Antigen-induced arthritis was provoked in test animals (rats) according to Buchner (“Behandlung der antigeninduzierten Arthritis der Ratte mit Anti-Makrophagenprinzipien und monoklonalen Anti-CD4 Antikörpern”, Ph.D. thesis 1996, Friedrich-Alexander University Erlangen-Nuremberg, Germany, p. 129).
# (§2) Arthritis was provoked on day 0 according to Buchner by intra-articular injection of the antigen into the synovial gap in the right knee. The arthritic animals were treated intravenously with liposomal dexamethasone phosphate (formulation A, 3.75 mg/kg) 6, 24 and 48 hours after induction of arthritis. Free dexamethasone phosphate (formulation K, likewise 3.75 mg/kg) and physiological salt solution (saline) were used as controls. The effect of sample administration was established using the following parameters: • determination of joint swelling (cf., FIG. 1)
# histological examination of inflammation parameters and of joint cartilage destruction parameters (cf. FIG. 2 and Table 2)
# Degree of joint cartilage destruction and joint inflammation of arthritic animals after treatment
# 0: no changes compared to healthy knee
# In analogy to Example 3, antigen-induced arthritis was provoked in the test animals. Arthritis was provoked on day 0 by intra-articular injection of the antigen into the synovial gap in the right knee. The arthritic animals were treated intravenously with liposomal dexamethasone phosphate (formulation B, C, 3.75 mg/kg each time, according to Table 4) 6, 24 and 48 hours after induction of arthritis. Free dexamethasone phosphate (formulation K, likewise 3.75 mg/kg) and physiological salt solution (saline) were used as controls. The effect of sample administration was established using the following parameters: • determination of joint swelling (cf., FIG. 5)
# histological examination of inflammation parameters and of joint cartilage destruction parameters (cf., FIG. 2 and Table 5)
# [2] = test system: Antigen-induced arthritis; experiment: Antigen-induced arthritis in rats, determination of joint swelling; format: in vivo; settings: 0.375 mg per kg body weight
# Procedure: as §1, §2
# Arthritis was provoked in rats in analogy to Example 3, and the rats were treated with the following formulations containing only one tenth of the dexamethasone phosphate dose specified in Example 3:
# In analogy to Example 3, antigen-induced arthritis was provoked in the test animals. Arthritis was provoked on day 0 by intra-articular injection of the antigen into the synovial gap in the right knee. […]
smiles,measurement,setting,value
"C[C@@H]1C[C@H]2[C@@H]3CCC4=CC(=O)C=C[C@]4(C)[C@@]3(F)[C@@H](O)C[C@]2(C)[C@@]1(O)C(=O)COP(=O)(O)O [Formulation K, dexamethasone phosphate]","Histological sections of arthritic knee joints (FIG. 2), finding","[1]; Hematoxylin/eosin staining, magnified 92fold",massive inflammation and destruction of cartilage and bone
same,Degree of cartilage destruction,"[1]; Table 2, rats",2.75
same,Degree of joint inflammation,"[1]; Table 2, rats",3.5
same,Degree of cartilage destruction,"[1]; Table 5, rats",2.75
same,Degree of joint inflammation,"[1]; Table 5, rats",3.5
same,Joint cartilage destruction and inflammatory reactions after treatment (in words),"[1]; rats, 3.75 mg/kg intravenously",considerably less effective
same,Suppression of antigen-induced arthritis,[2],developed all symptoms of the animal model after short amelioration
